How the values were obtained:
[1] = test system: indomethacin-induced gastric mucosal damage; assay: Indomethacin-induced gastric mucosal damage (ulcer index, histology); type: in vivo, Sprague-Dwaley rats
Experimental: Sprague-Dwaley rats (180-220 gm) were used for this study. Each group (control or experimental) of animals was maintained at 24±2° C. with 12 hrs lights and dark cycle. The animals were fasted for 24 hrs before the start of experiments. They were provided with water ad libitum to avoid food-induced increased acid secretion and its effect on gastric lesions. Gastric mucosal ulcer was developed by indomethacin as described (Pal, C; et al. Free Radic Biol Med, 49(2), 258-267; 2010, Biswas, K.; et al. J. Biol. Chem. 278:10993-11001; 2003, Bandyopadhyay, U.; et al. Life Sci. 71:2845-2865; 2002). Briefly, all the animals were divided into control, indomethacin and test compound group. Oral administration of indomethacin at a dose of 48 mg kg^−1 b.w was given to the fasted animals to induce gastric ulcer. […] Control group received vehicle only but no indomethacin. After 4 hrs of indomethacin treatment, the animals were sacrificed under proper euthanasia and stomachs were collected. The mucosal injury was scored as ulcer index as follows: 0=no pathology; 1=one pinhead ulcer. The sum of the total scores divided by the number of animals gave the ulcer index. All the in vivo studies were done in accordance with the institute animal ethical committee guidelines. To see the effect of SEGA on diclofenac induced gastric mucosal injury, gastric mucosal damage was developed by the oral administration of diclofenac (75 mg kg^−1) and the rest of the experiment was carried out in a similar way as described for indomethacin. Diclofenac produced pinhead ulcer like indomethacin and the mucosal injury was scored as ulcer index as described above. Ethanol-induced gastric mucosal injury was developed with oral administration of 1 ml of 50% ethanol (Banerjee, R. K. (2002) Life Sci 71, 2845-2865) and after 4 hrs the animals were sacrificed and cold-restrain stress induced mucosal injury was developed by immobilizing the animals at 4° C. for 3.5 hrs (Banerjee, R. K. (2002) Life Sci 71, 2845-2865, (2003) J Biol Chem 278, 10993-11001).
Stomach tissues from the animals of different groups were washed first washed several times with PBS (pH 7.4) and later fixed in 10% buffered formalin for 12 hrs at 25° C. The formalin-fixed tissues were then dehydrated and embedded in paraffin for preparing semi-thin sections (Maity, P.; et al. J. Biol. Chem. 283:14391-14401; 2008). The semi-thin sections were prepared using a microtome and taken over poly-L-lysine coated glass slide for hematoxylene-eosine staining. The stained sections were observed under microscope (Leica DM-2500, Germany) and were documented by high-resolution digital camera.

[2] = test system: cold-restrain stress induced mucosal injury; assay: Cold-restrain stress induced mucosal injury; type: in vivo, Sprague-Dwaley rats; conditions: immobilized at 4° C. for 3.5 hrs; rats
rats = assay: Toxicity (death) after injection in rats; type: in vivo; conditions: conclusion from in vivo experiments
gastric mucosal cells = assay: TUNEL assay of gastric mucosa in vivo; design: species or system rats
[3] = test system: primary cultured gastric epithelial cells; assay: TUNEL assay in cultured gastric mucosal cells; type: cell-based, rat; conditions: in vitro cultured gastric mucosa
Experimental: Gastric mucosal cells were isolated and cultured as described earlier (Pal, C; et al. Free Radic Biol Med, 49(2), 258-267; 2010) with slight modification. Mucosa from rat stomach was scraped into HBSS (pH 7.4) containing 100 U/ml penicillin and 100-μg/ml streptomycin. The mucosa was then minced and suspended in HBSS (pH 7.4), containing 0.05% hyaluronidase and 0.1% collagenase type I. The suspension was incubated for 30 min at 37° C. in 5% CO2 environment with shaking and then filtered through a sterile nylon mess. The filtrate was centrifuged at 600×g for 5 min, the cell pellet was washed with HBSS (pH 7.4) and further centrifuged. The pellet was incubated in 5 ml of Hans F-12 media in T25 flask supplemented with 10% fetal bovine serum (FBS) and 100 U/ml penicillin, 100-μg/ml streptomycin and gentamycin. Cells were cultured at 37° C. with 5% CO2 and grown to ˜90% confluence before treatment.

[4] = test system: Mitochondrial transmembrane potential (ΔΨm); assay: Mitochondrial transmembrane potential (JC-1); type: in vivo, rats; conditions: indomethacin, diclofenac; pretreatment
Experimental: Mitochondrial transmembrane potential (ΔΨm) was measured as described (Maity, P.; et al. J. Biol. Chem. 284:3058-3068; 2009, Maity, P.; et al. J. Biol. Chem. 283:14391-14401; 2008, Maity, P.; et al. J. Pineal Res. 46:314-323; 2009). Mitochondria were isolated from gastric mucosal scraping using Mitoisolation kit (Biochain) as described above. Equal amount of mitochondria (25 μg) from each group (control, indomethacin, diclofenac and SEGA pre-treated indomethacin, diclofenac treated) was taken in 100 μl of JC-1 assay buffer (100 mM MOPS, pH 7.5, containing 550 mM KCl, 50 mM ATP, 50 mM MgCl2, 50 mM sodium succinate, 5 mM EGTA) and were incubated in dark with JC1 (300 nM) for 15 min at 25° C. The fluorescence of each sample was measured in a Hitachi F-7000 fluorescence spectrophtometer (excitation 490 nm, emission 530 nm for JC-1 monomer and emission 590 nm for JC-1 aggregates). ΔΨm was expressed as fluorescence ratio of 590 nm/530 nm.

For `O=C(NCCc1c[nH]c2ccc(O)cc12)c1cc(O)c(O)c(O)c1` [Compound 3a, 3,4,5-trihydroxy-N-(2-(5-hydroxy-1H-indol-3-yl)ethyl)benzamide], the “Gastric mucosal damage (ulcer index)” value ([1]; compound 6.9 mg kg^−1 intraperitoneally before indomethacin 48 mg kg^−1 oral, rats) was 30 ± 3, the “protection, indomethacin-induced gastric mucosal injury” value ([1]; dose 1 mg kg^−1 i.p.) was 17% and the “protection, indomethacin-induced gastric mucosal injury” value ([1]; dose 3 mg kg^−1 i.p.) was 28%. The “protection, indomethacin-induced gastric mucosal injury” value ([1]; dose 5 mg kg^−1 i.p.) was 45%, the “protection, indomethacin-induced gastric mucosal injury” value ([1]; dose 10 mg kg^−1 i.p.) was 62% and the “protection, indomethacin-induced gastric mucosal injury” value ([1]; dose 20 mg kg^−1 i.p.) was 82%. The “protection, indomethacin-induced gastric mucosal injury” value ([1]; dose 50 mg kg^−1 i.p.) was 94%, the “ED50, prevention of indomethacin-induced gastric mucosal damage” value ([1]; intraperitoneal, rats, listed as SEGA (3a)) was 6.9 mg/kg and the “histology of gastric mucosal tissue (haematoxylin-eosin)” value ([1]; pretreated indomethacin-treated rats) was “could protect gastric mucosa”. The “gastroprotective effect in stress induced gastropathy” value [2] was “protects the gastric mucosa”, the toxicity in rats (rats) was “nontoxic molecule” and the “indomethacin-induced apoptosis (TUNEL) in vivo” value (gastric mucosal cells) was “prevents the indomethcin-induced apoptosis”. The “indomethacin-induced apoptosis (TUNEL) in vitro” value [3] was “prevents the indomethcin-induced apoptosis” and the “mitochondrial membrane potential (fluorescence ratio 590 nm/530 nm, JC-1)” value [4] was “restores all the NSAIDs-induced mitochondrial dysfuctions”.
